Source: US20230145868A1, “UREA INHIBITORS OF MICRO-RNA” (Board of Regents, The University of Texas System, priority 2020, published 2023)

Legend:
[1] = tested on: human pre-miR-10b RNA hairpin; test: NMR detection of compound binding to miRNA
Protocol: The human pre-miR-10b RNA hairpin sequence (nucleotides 40-75, per miRbase) was transcribed enzymatically and purified using methods previously described. The NMR screening buffer consisted of 20 mM Bis-Tris-d19 at pH 6.5, 10 mM NaCl, 0.2% Tween-20, and 11.1 μM DSA as chemical shift reference (integrates to 100 μM), prepared in 99.99% D2O or 95%H2O/5%D2O. Each ligand was first dissolved in DMSO to a 10 mM stock concentration. Free ligand screening samples were prepared at a final DMSO concentration of […] at a concentration of 100 μM in NMR screening buffer. For RNA target detected experiments, the lyophilized RNA pellets were dissolved in DMSO-free NMR screening buffer and heated for 4 min at 90° C., then snap cooled for 5 min at −20° C. ^1D-^1H experiments for both ligand and RNA were collected using the Bruker “zgesgp” excitation sculpting pulse sequence to suppress background water signal. Data was collected with 64 scans and 16K data points. Data was processed using 16K zero points, then Fourier transformed followed by manual phase and baseline correction. 2D-^1H TOCSY experiments were collected using the Bruker “mlevesgpph” pulse sequence with excitation sculpting water suppression, data collected with 32 scans, 2K×512 data points, a recycle delay of 1.2 s, and spin-lock mixing time of 80 ms. […]

PTEN = test: Proteomics (RPPA), PTEN expression; assay type: cell-based, human; set-up: dose or concentration left out as unconfirmed; details: U251
Protocol: Proteomics analysis was conducted at the Reverse Phase Protein Array Core facility at MD Anderson Cancer Center. Briefly, controls and treated samples were analyzed in triplicate for 486 unique antibodies. The outputs were then normalized for protein loading and transformed to the linear value, and the normalized data was logy transformed (log2(x+1)) and sorted by FDR-adjusted p-values with a significance level of p<0.05. Differentially expressed proteins between groups were identified using the moderated t-test from LIMMA package. […] Analyses and graphical representations were carried out in R. When preparing the data for analysis, the loge fold change was calculated and adjusted p-value was used for analysis. Gene symbols were converted using the DAVID bioinformatics resource and the clusterProfiler data visualization and analysis package was used for pathway enrichment analysis. For pathway analysis, the Hallmark gene set and Gene Ontology was used for gene set and pathway enrichment.

miR-10b = test: qRT-PCR of miR-10b in cerebral organoids co-cultured with brain cancer cells; assay type: cell-based, human; details: 10 μM, 48 h
Source text: For co-culturing with cerebral organoids, the brain cancer cell lines U251 and LN229 were transduced with an RFP lentiviral vector expressing mCherry and luciferase, and sorted twice via an Aria Influx Cell Sorter.
Human induced pluripotent stem cell (iPSC) derived cerebral organoids were obtained, courtesy of Dr. Sanjay Singh and Dr. Frederick Lang in the Department of Neurosurgery at MD Anderson Cancer Center. Organoids were maintained in a specialized neural based media on a shaker inside a 37° C. incubator. After maturation, organoids were moved to 24-well ultra-low attachment plates, and individually co-cultured with 5×10^5−1×10^6 cells from brain cancer cell lines for approximately 48-72 h, until RFP signal was clear on the surface of the organoid, indicating cell attachment. Organoids were then moved to 6 well plates and grouped into triplicates within the well. The treatment regimen of control, and 4 was started, at an analogous schedule to in vitro experiments. For fixation and embedding for in situ hybridization, the organoids were processed using 4% PFA and placed in OCT in −80° C. for sectioning.

[2] = Microsomal stability assay, rat; assay type: in vitro ADME; details: 1 μM test compound, unit printed in b356 only
Protocol: (§1) The liver microsomal incubation mixture was composed of liver microsomes (with a concentration of 0.5 mg microsomal protein/ml), the test compound (1 μM), MgCl2 (3 mM), EDTA (1 mM) in potassium phosphate buffer (100 mM, pH 7.4). Control substrates used were Midazolam and Ketanserin. The reaction was initiated with the addition of an NADPH regeneration solution (1.3 mM NADPH) and maintained at 37° C. with shaking. At five sequential time points ranging from 0 to 45 min, aliquots of the mixture (50 μL) were removed and quenched with acetonitrile (100 μL) containing an internal standard control (imipramine) Samples were analyzed after vortexing and centrifugation by liquid chromatography-mass spectrometry (LC-MS/MS). The in vitro t1/2 was then calculated and clearance followed literature.

[3] = tested on: miR-16, miR-28, miR-182, miR-10a, miR-21, miR-155; test: RT-qPCR of other micro-RNAs (selectivity); assay type: cell-based, human; details: AGS and AsPC1 cell lines; normalized to U6
AsPC1 cell line = test: Migration assay, AsPC1; assay type: cell-based, human; details: vs DMSO
[4] = tested on: U251 brain cancer cell line; test: Cell morphology; assay type: cell-based, human; details: over the course of 48 h
VEGF = test: Western blot, VEGF expression; assay type: cell-based, human; details: LN229 and U251 brain cancer cell lines
Protocol: (§2) Proteins are collected from cultured cells and lysed with 10× Lysis Buffer (Cell Signaling) freshly supplemented with a complete protease inhibitor cocktail and phosphatase inhibitors (Sigma). Bradford assay is used to measure protein concentration. Proteins are separated by polyacrylamide gel (Bio-rad) electrophoresis and were transferred to a 0.2 μm nitrocellulose membrane (Bio-rad). Quantification of protein expression was conducted using the image analysis software ImageJ.

U251 cell line = test: Annexin V/PI apoptosis assay by flow cytometry, U251; assay type: cell-based, human; details: 48 h
Protocol: In 6-well plates, 1×10^5 cells/mL were added into each well. After 24 h, sequential concentrations of DMSO and 4 based were administered and the plates were incubated for 48 h. The supernatant and adherent cells were collected and centrifugated. Each dose was done in triplicate, with each sample composing two wells. For apoptosis analysis, the supernatant was discarded after centrifugation and the pellet washed with PBS twice. Then, BD Annexin V-FITC/PI used to stain the cells for analysis via flow cytometry on the Gallios machine. For cell cycle analysis, after washing with PBS, cells were fixed with ethanol and incubated. They, were treated with RNase enzyme and analyzed.

[5] = Microsomal stability assay, human; assay type: in vitro ADME; details: pH 7.4; human liver microsomes; 1 μM test compound; unit printed in b356 only
Protocol: as §1

PDGF = test: Western blot, PDGF expression; assay type: cell-based, human; details: LN229 and U251 brain cancer cell lines
Protocol: as §2

[6] = rat, liver microsomes, pH 7.4, rat liver microsomes

ligand detected 1D-1H line broadening (peak signal free vs bound) ([1]; ligand with pre-miR-10b sequence, methyl protons, indicative of direct binding): large decrease in peak signal
CLint ([2]; rat liver microsomes): 41.1 mL/min/kg
Half-life ([2]; rat liver microsomes): 1.01 h
CLint scaled at 1 μM [2, 6]: 41 mL/min/kg
half-life at 1 μM [2, 6]: 1 h
CLint scaled at 1 μM [5]: 14.9 mL/min/kg
half-life at 1 μM [5]: 1.93 h
Structure (SMILES): Cc1ccc(F)c(NC(=O)Nc2ccc(-c3cccc4cn[nH]c34)cc2)c1 [Example 4, 1-(4-(1H-indazol-7-yl)phenyl)-3-(2-fluoro-5-methylphenyl)urea]
target detect 2D 1H-1H TOCSY, binding to pre-miR-10b ([1]; 50 μM pre-miR-10b titrated with 100 μM, largest shifts U6, U7, U8, U26, C27, C29, U33): directly binds to the hairpin structure of precursor miR-10b
PTEN expression (proteomics) (PTEN): significantly upregulated
miR-10b levels (qRT-PCR) (miR-10b; cerebral organoids co-cultured with LN229): Significant downregulation of miR-10b
miR-10b levels (qRT-PCR) (miR-10b; cerebral organoids co-cultured with U251): Significant downregulation of miR-10b
selectivity for miR-10b over other micro-RNAs [3]: selectivity of compound 4 for miR-10b becomes apparent
migration (AsPC1 cell line): decreased migration
morphology of the cells [4]: significant change in the morphology
VEGF expression (Western blot) (VEGF): low to very slight variations
increase in total apoptotic cells compared to control (U251 cell line; 5 μM): approximately 4.5 fold
total apoptotic cells at 10 μM compared with 5 μM (U251 cell line; 10 μM): approximately the same
PDGF expression (Western blot) (PDGF): low to very slight variations
